Legend:
Format in all cases: in vivo
[1] = system: Tetranychus urticae; experiment: Test Example 1: foliar spray on kidney bean leaves carrying Tetranychus urticae adults, insect death rate; conditions: etoxazole 0.000781 ppm alone, 2 days after treatment
Experimental: Kidney beans (Nagauzura saitou) were planted (one plant per container) in plastic containers (volume: 90 ml) and grown until the primary leaves had fully expanded. Only one leaf of each kidney bean plant was left on the plant and all the other leaves were removed from the plant. Then, 5 adults of Tetranychus urticae were released on each leaf.
(§1) A suspension concentrate containing 10.0% by weight of etoxazole [product name: Baroque (registered trademark) flowable, manufactured by Kyoyu Agri Co., Ltd.] was diluted with water containing 0.02% by volume of a spreading agent [product name: Sindain (registered trademark), manufactured by Sumitomo Chemical Co., […]
(§2) A reference standard containing 99.9% by weight of fenazaquin was diluted with water containing 0.02% by volume of a spreading agent [product name: Sindain (registered trademark), manufactured by Sumitomo Chemical Co., Ltd.] so that the concentration of fenazaquin became 50 ppm. […]
Three days after the release of the insects, each test solution was sprayed onto the leaves of kidney bean plants and the leaves were air-dried. […] An insect death rate was calculated according to the following equation. […]

[2] = system: Tetranychus urticae; experiment: Test Example 2: foliar spray on kidney bean leaves carrying Tetranychus urticae adults, insect death rate; conditions: etoxazole 0.8 ppm alone, 3 days after treatment
Experimental: Kidney beans (Nagauzura saitou) were planted (one plant per container) in plastic containers (volume: 90 ml) and grown until the primary leaves had fully expanded. Only one leaf of each kidney bean plant was left on the plant and all the other leaves were removed from the plant. Then, 10 adults of Tetranychus urticae were released on each leaf.
as §1, §2
Four days after the release of the insects, each test solution was sprayed onto the leaves of kidney bean plants and the leaves were air-dried. […] An insect death rate was calculated according to the following equation. […]

[3] = system: Bemisia tabaci; experiment: Test Example 3: spray on cabbage seedlings carrying Bemisia tabaci, insect death rate; conditions: 2 days after treatment
Experimental: Cabbages (Green ball) were planted (one plant per container) in plastic containers (volume: 90 ml) and grown until the third to fourth leaf stage. Only one leaf of each cabbage plant was left on the plant and all the other leaves were removed from the plant. The plastic containers were put into a net cage containing a lot of living Bemisia tabaci and allowed to stand for 24 hours. After that, the plastic containers were taken out from the cage and the number of living insects (Bemisia tabaci) on the cabbage seedlings was determined (This is called the “number of insects before treatment”).
A suspension concentrate containing 10.0% by weight of etoxazole [product name: Baroque (registered trademark) flowable, manufactured by Kyoyu Agri Co., Ltd.] was diluted with water containing 0.02% by volume of a spreading agent [product name: Sindain (registered trademark), manufactured by Sumitomo Chemical Co., Ltd.] so that the concentration of etoxazole became 800 ppm.
A reference standard containing 99.9% by weight of fenazaquin was diluted with water containing 0.02% by volume of a spreading agent [product name: Sindain (registered trademark), manufactured by Sumitomo Chemical Co., Ltd.] so that the concentration of fenazaquin became 50 ppm.
The water dilution of etoxazole, the water dilution of fenazaquin, and water containing 0.02% by volume of a spreading agent [product name: Sindain (registered trademark), manufactured by Sumitomo Chemical Co., Ltd.] were mixed to prepare a test solution with a predetermined concentration of etoxazole and/or fenazaquin.
Then, each test solution was sprayed onto the plastic containers to sufficiently soak cabbage seedlings, and allowed to stand for room temperature (about 25° C.). Two days after the treatment, the number of living insects (Bemisia tabaci) on the cabbage seedlings was determined (This is called the “number of insects after treatment”).
An insect death rate was calculated according to the following equation. For each treatment there are duplicates. […]

Structure (SMILES): CCOc1cc(C(C)(C)C)ccc1C1COC(c2c(F)cccc2F)=N1 (centres unmarked) [Etoxazole, 2-(2,6-difluorophenyl)-4-[4-(1,1-dimethylethyl)-2-ethoxyphenyl]-4,5-dihydrooxazole]
- Insect death rate (%) [1]: 10%
- Insect death rate (%) [2]: 15%
- Insect death rate (%) ([3]; etoxazole 50 ppm alone): 15%
- Insect death rate (%) ([3]; etoxazole 200 ppm alone): 17%
- Insect death rate (%) ([3]; etoxazole 800 ppm alone): 32%
